Experimental data from patent US5428059A, “Benzopyran derivatives and an anti-allergic agent possessing the same as the active ingredient” (Dainippon Ink & Chemicals, Inc., priority 1991, dated 1995).

Test system: Hartley-type male guinea pigs
Test: Guinea Pig Homogeneous Skin Passive Anaphylaxis Assay (PCA reaction)
Format: in vivo, guinea pig (Hartley-type)
Details: Cavia porcellus, 10 mg/kg oral, 48 h after sensitization, read-out: Allergic reaction inhibitory index (%)
Procedure, shortened: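 Inhibition % is derived from Evans Blue leakage area (mm^2, product of spot diameters) read 30 min after i.v. OVA/dye challenge. Beforehand, male Hartley guinea pigs (250~300 g) were passively sensitized intradermally with 120-fold-diluted anti-OVA serum and, after 48 h, received test compound 10 mg/kg p.o.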

Compared with `COc1c(O)c2c(OC/C=C(\C)CCC=C(C)C)cccc2oc1=O` [Compound 248, 3-(methoxy)-4-hydroxy-5-(geranyloxy)-2H-1-benzopyran-2-one], `CC(C)=CCC/C(C)=C/COc1cccc2oc(=O)c(O)c(OC(C)C)c12` [Compound 249, 3-hydroxy-4-(isopropoxy)-5-(geranyloxy)-2H-1-benzopyran-2-one] is lower in inhibition in vivo at 10 mg/kg: 35% for the first, 32% for the second.

Compared with `CC(C)=CCC/C(C)=C/COc1c(O)c(=O)oc2c(OC/C=C(\C)CCC=C(C)C)cccc12` [Compound 168, 3-hydroxy-4,8-(digeranyloxy)-2H-1-benzopyran-2-one], `COc1cccc2c(OC/C=C(\C)CCC=C(C)C)c(OC/C=C(\C)CCC=C(C)C)c(=O)oc12` [Compound 126, 3,4-(digeranyloxy)-8-(methoxy)-2H-1-benzopyran-2-one] is lower in inhibition in vivo at 10 mg/kg: 34% for the first, 30% for the second.

Going from `CC(C)=CCC/C(C)=C/COc1ccc2c(OC/C=C(\C)CCC=C(C)C)c(O)c(=O)oc2c1` [Compound 84, 3-hydroxy-4,7-(digeranyloxy)-2H-1-benzopyran-2-one] to `CC(C)=CCC/C(C)=C/COc1cccc2oc(=O)c(OC(C)C)c(OC/C=C(\C)CCC=C(C)C)c12` [Compound 258, 3-(isopropoxy)-4,5-(digeranyloxy)-2H-1-benzopyran-2-one], the inhibition in vivo at 10 mg/kg rises from 30% to 32%.

Going from `CC(=O)Oc1c(OC/C=C(\C)CCC=C(C)C)c(=O)oc2cc(O)ccc12` [Compound 21, 3-(geranyloxy)-4-(acetoxy)-7-hydroxy-2H-1-benzopyran-2-one] to `COc1ccc2c(OC/C=C(\C)CCC=C(C)C)c(OC(C)=O)c(=O)oc2c1` [Compound 40, 3-(acetoxy)-4-(geranyloxy)-7-(methoxy)-2H-1-benzopyran-2-one], the inhibition in vivo at 10 mg/kg rises from 33% to 34%.

Going from `COc1cccc2c(OC(=O)c3ccccc3)c(OC(C)=O)c(=O)oc12` [Compound 114, 3-(acetoxy)-4-(benzoyloxy)-8-(methoxy)-2H-1-benzopyran-2-one] to `COc1ccc2c(OC(C)=O)c(OC(=O)c3ccccc3)c(=O)oc2c1` [Compound 35, 3-(benzoyloxy)-4-(acetoxy)-7-(methoxy)-2H-1-benzopyran-2-one], the inhibition in vivo at 10 mg/kg falls from 31% to 30%.

`CCCCCCCCCCOc1ccc2c(OC)c(OC(C)C)c(=O)oc2c1` [Compound 66, 3-(isopropoxy)-4-(methoxy)-7-(decyloxy)-2H-1-benzopyran-2-one] and `CCCCCCCCCCOc1ccc2c(OC(C)C)c(OC)c(=O)oc2c1` [Compound 64, 3-(methoxy)-4-(isopropoxy)-7-(decyloxy)-2H-1-benzopyran-2-one] are the same in inhibition in vivo at 10 mg/kg: 30% for the first, 30% for the second.

Compared with `COc1c(OC)c2ccc(O)cc2oc1=O` [Compound 17, 3,4-(dimethoxy)-7-hydroxy-2H-1-benzopyran-2-one], `COc1ccc2c(OC(C)=O)c(O)c(=O)oc2c1` [Compound 31, 3-hydroxy-4-(acetoxy)-7-(methoxy)-2H-1-benzopyran-2-one] is higher in inhibition in vivo at 10 mg/kg: 31% for the first, 38% for the second.

First: CCCCCCCCCCOc1ccc2c(OC/C=C(\C)CCC=C(C)C)c(OC(=O)c3ccccc3)c(=O)oc2c1 [Compound 70, 3-(benzoyloxy)-4-(geranyloxy)-7-(decyloxy)-2H-1-benzopyran-2-one]
Second: CCCCCCCCCCOc1ccc2c(OC/C=C(\C)CCC=C(C)C)c(OC(C)C)c(=O)oc2c1 [Compound 72, 3-(isopropoxy)-4-(geranyloxy)-7-(decyloxy)-2H-1-benzopyran-2-one]
The inhibition in vivo at 10 mg/kg of the first is lower: 30% for the first, 34% for the second.

First: CC(C)=CCC/C(C)=C/COc1c(OC(C)C)c(=O)oc2cccc(O)c12 [Compound 192, 3-(isopropoxy)-4-(geranyloxy)-5-hydroxy-2H-1-benzopyran-2-one]
Second: COc1cccc2oc(=O)c(OC/C=C(\C)CCC=C(C)C)c(OC(C)C)c12 [Compound 207, 3-(geranyloxy)-4-(isopropoxy)-5-(methoxy)-2H-1-benzopyran-2-one]
The inhibition in vivo at 10 mg/kg of the first is higher: 37% for the first, 33% for the second.

Compared with `COc1ccc2c(OC/C=C(\C)CCC=C(C)C)c(OC)c(=O)oc2c1` [Compound 42, 3,7-(dimethoxy)-4-(geranyloxy)-2H-1-benzopyran-2-one], `COc1ccc2c(OC(C)C)c(OC/C=C(\C)CCC=C(C)C)c(=O)oc2c1` [Compound 41, 3-(geranyloxy)-4-(isopropoxy)-7-(methoxy)-2H-1-benzopyran-2-one] is lower in inhibition in vivo at 10 mg/kg: 33% for the first, 30% for the second.

`CC(C)=CCC/C(C)=C/COc1c(O)c(=O)oc2cc(OC(C)C)ccc12` [Compound 54, 3-hydroxy-4-(geranyloxy)-7-(isopropoxy)-2H-1-benzopyran-2-one] and `CC(C)=CCC/C(C)=C/COc1c(OC(C)C)c(=O)oc2cc(O)ccc12` [Compound 25, 3-(isopropoxy)-4-(geranyloxy)-7-hydroxy-2H-1-benzopyran-2-one] are the same in inhibition in vivo at 10 mg/kg: 32% for the first, 32% for the second.

First: CCCCCCCCCCOc1cccc2c(OC(C)C)c(OC(C)=O)c(=O)oc12 [Compound 149, 3-(acetoxy)-4-(isopropoxy)-8-(decyloxy)-2H-1-benzopyran-2-one]
Second: CCCCCCCCCCOc1cccc2oc(=O)c(OC(C)C)c(O)c12 [Compound 233, 3-(isopropoxy)-4-hydroxy-5-(decyloxy)-2H-1-benzopyran-2-one]
The inhibition in vivo at 10 mg/kg of the first is lower: 33% for the first, 39% for the second.

First: CC(=O)Oc1c(OC(C)=O)c2c(OC(C)C)cccc2oc1=O [Compound 213, 3,4-(diacetoxy)-5-(isopropoxy)-2H-1-benzopyran-2-one]
Second: CC(=O)Oc1c(O)c(=O)oc2cccc(OC(C)C)c12 [Compound 212, 3-hydroxy-4-(acetoxy)-5-(isopropoxy)-2H-1-benzopyran-2-one]
The inhibition in vivo at 10 mg/kg of the first is lower: 33% for the first, 37% for the second.

First: CCCCCCCCCCOc1c(OC(C)C)c2c(OC/C=C(\C)CCC=C(C)C)cccc2oc1=O [Compound 250, 3-(decyloxy)-4-(isopropoxy)-5-(geranyloxy)-2H-1-benzopyran-2-one]
Second: CCCCCCCCCCOc1cccc2c(O)c(OC/C=C(\C)CCC=C(C)C)c(=O)oc12 [Compound 151, 3-(geranyloxy)-4-hydroxy-8-(decyloxy)-2H-1-benzopyran-2-one]
The inhibition in vivo at 10 mg/kg of the first is lower: 31% for the first, 34% for the second.

Compared with `O=c1oc2c(O)cccc2c(O)c1O` [Compound 93, 3,4,8-trihydroxy-2H-1-benzopyran-2-one], `CC(C)Oc1cccc2c(O)c(O)c(=O)oc12` [Compound 130, 3,4-(dihydroxy)-8-(isopropoxy)-2H-1-benzopyran-2-one] is lower in inhibition in vivo at 10 mg/kg: 42% for the first, 39% for the second.

Compared with `CC(=O)Oc1c(O)c2cc(O)ccc2oc1=O` [Compound 264, 3-(acetoxy)-4,6-(dihydroxy)-2H-1-benzopyran-2-one], `COc1ccc2c(O)c(OC(C)=O)c(=O)oc2c1` [Compound 29, 3-(acetoxy)-4-hydroxy-7-(methoxy)-2H-1-benzopyran-2-one] is higher in inhibition in vivo at 10 mg/kg: 36% for the first, 46% for the second.

Going from `CC(C)Oc1ccc2c(O)c(OC(=O)c3ccccc3)c(=O)oc2c1` [Compound 44, 3-(benzoyloxy)-4-(hydroxy)-7-(isopropoxy)-2H-1-benzopyran-2-one] to `CCCCOc1cccc2c(O)c(OC(=O)c3ccccc3)c(=O)oc12` [Compound 127, 3-(benzoyloxy)-4-hydroxy-8-(butyloxy)-2H-1-benzopyran-2-one], the inhibition in vivo at 10 mg/kg falls from 37% to 34%.

Going from `COc1c(OC(C)=O)c2ccc(OC/C=C(\C)CCC=C(C)C)cc2oc1=O` [Compound 82, 3-(methoxy)-4-(acetoxy)-7-(geranyloxy)-2H-1-benzopyran-2-one] to `COc1cccc2c(OC/C=C(\C)CCC=C(C)C)c(OC(C)=O)c(=O)oc12` [Compound 123, 3-(acetoxy)-4-(geranyloxy)-8-(methoxy)-2H-1-benzopyran-2-one], the inhibition in vivo at 10 mg/kg rises from 30% to 34%.

`COc1cccc2c(OC/C=C(\C)CCC=C(C)C)c(O)c(=O)oc12` [Compound 121, 3-hydroxy-4-(geranyloxy)-8-(methoxy)-2H-1-benzopyran-2-one] and `CC(C)=CCC/C(C)=C/COc1c(O)c(=O)oc2c(O)cccc12` [Compound 103, 3,8-(dihydroxy)-4-(geranyloxy)-2H-1-benzopyran-2-one] are the same in inhibition in vivo at 10 mg/kg: 30% for the first, 30% for the second.

Compared with `CCCCCCCCCCOc1ccc2oc(=O)c(OC(C)=O)c(O)c2c1` [Compound 279, 3-(acetoxy)-4-(hydroxy)-6-(decyloxy)-2H-1-benzopyran-2-one], `CCCCCCCCCCOc1cccc2oc(=O)c(O)c(OC(C)=O)c12` [Compound 231, 3-hydroxy-4-(acetoxy)-5-(decyloxy)-2H-1-benzopyran-2-one] is higher in inhibition in vivo at 10 mg/kg: 30% for the first, 31% for the second.

First: CCCCCCCCCCOc1cccc2oc(=O)c(O)c(OCCCC)c12 [Compound 234, 3-hydroxy-4-(butoxy)-5-(decyloxy)-2H-1-benzopyran-2-one]
Second: CCCCCCCCCCOc1cccc2oc(=O)c(OC/C=C(\C)CCC=C(C)C)c(OC/C=C(\C)CCC=C(C)C)c12 [Compound 243, 3,4-(digeranyloxy)-5-(decyloxy)-2H-1-benzopyran-2-one]
The inhibition in vivo at 10 mg/kg of the first is higher: 33% for the first, 31% for the second.

Going from `COc1cccc2oc(=O)c(OC(C)=O)c(OC)c12` [Compound 201, 3-(acetoxy)-4,5-(dimethoxy)-2H-1-benzopyran-2-one] to `CCCCOc1cccc2oc(=O)c(OC(=O)c3ccccc3)c(OC)c12` [Compound 228, 3-(benzoyloxy)-4-(methoxy)-5-(butoxy)-2H-1-benzopyran-2-one], the inhibition in vivo at 10 mg/kg rises from 31% to 34%.

`CC(C)=CCC/C(C)=C/COc1c(O)c2c(O)cccc2oc1=O` [Compound 187, 3-(geranyloxy)-4,5-(dihydroxy)-2H-1-benzopyran-2-one] and `CC(C)=CCC/C(C)=C/COc1c(OC(C)C)c2cccc(OC(C)C)c2oc1=O` [Compound 140, 3-(geranyloxy)-4,8-(diisopropoxy)-2H-1-benzopyran-2-one] are the same in inhibition in vivo at 10 mg/kg: 30% for the first, 30% for the second.

For `CC(C)Oc1cccc2oc(=O)c(O)c(OC(C)C)c12` [Compound 215, 3-hydroxy-4,5-(diisopropoxy)-2H-1-benzopyran-2-one], the inhibition in vivo at 10 mg/kg was 34%.
